# PMC7077750 (Journal of medicinal chemistry, 2020)
# Like-named read-outs stand apart in the source and are kept apart here.
# Columns and labels:
# GFP-rCB1R = GFP-rCB1R (Rattus norvegicus, UniProt P20272); test: cAMP inhibition; assay type: cell-based; conditions: for ΔEC50 / ΔEMax: difference between CP55,940 alone and maximal concentration of GAT compound
# hCB1R [1] = molecular target: T1, hCB1R (Homo sapiens, UniProt P21554); test: DiscoveRx PathHunter βarrestin2 recruitment assay; conditions: for concentrations promoting CP55,940-dependent βarrestin2 recruitment: 100 nM CP55,940, 90 min
# T1 sequence (P21554 whole entry): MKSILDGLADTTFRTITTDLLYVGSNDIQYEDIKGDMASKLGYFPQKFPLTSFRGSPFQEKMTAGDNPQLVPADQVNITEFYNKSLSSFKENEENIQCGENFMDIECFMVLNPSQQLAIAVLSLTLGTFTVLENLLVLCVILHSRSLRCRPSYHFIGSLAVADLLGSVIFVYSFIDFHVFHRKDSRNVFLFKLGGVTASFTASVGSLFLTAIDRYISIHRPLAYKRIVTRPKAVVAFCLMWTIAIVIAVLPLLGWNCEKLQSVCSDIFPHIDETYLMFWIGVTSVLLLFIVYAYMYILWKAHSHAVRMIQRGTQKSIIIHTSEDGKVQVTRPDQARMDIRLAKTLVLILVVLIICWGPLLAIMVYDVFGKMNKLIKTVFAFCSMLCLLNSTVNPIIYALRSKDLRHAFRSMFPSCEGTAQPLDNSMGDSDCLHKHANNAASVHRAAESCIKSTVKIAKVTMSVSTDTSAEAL
# hCB1R [2] = molecular target: T1, hCB1R; test: DiscoveRx HitHunter cAMP inhibition assay; conditions: for PAM bias between cAMP inhibition and βarrestin2 recruitment (ΔΔLogR): 100 nM CP55,940 as agonist; for PAM bias between cAMP inhibition and βarrestin2 recruitment (ΔΔLogR) / agonist bias between cAMP inhibition and βarrestin2 recruitment (ΔΔLogR): 90 min, operational model; for agonist bias between cAMP inhibition and βarrestin2 recruitment (ΔΔLogR): GAT compound alone
# [3] = test system: CFA-induced mechanical allodynia; conditions: same CFA model; cited from earlier work
# C57BL/6 mice [4] = test: Triad assessment: catalepsy; conditions: 0.1, 1, 3, or 10 mg/kg (i.p.); 5 min; vs vehicle
# C57BL/6 mice [5] = test: Triad assessment: warm water tail-flick test; conditions: 0.1-10 mg/kg i.p.; 20 min; significant vs vehicle at 3 and 10 mg/kg
# C57BL/6 mice [6] = test: Triad assessment: body temperature; conditions: 0.1, 1, 3, or 10 mg/kg (i.p.); 15 min; vs vehicle
# [7] = test system: CFA-induced mechanical allodynia; test: CFA-induced inflammatory nociception, mechanical allodynia; assay type: in vivo, mouse; conditions: for mechanical paw withdrawal threshold at 30 min post-injection: CFA-injected paw; for mechanical paw withdrawal threshold at 30 min post-injection / anti-allodynic efficacy at 4 h post injection: vs vehicle; for duration of efficacy post injection / suppression of CFA-induced mechanical allodynia in CB1KO mice: ipsilateral paw; for paw withdrawal thresholds in the contralateral paw: 0.1-30 mg/kg i.p.; for doses that elevated mechanical paw withdrawal thresholds relative to vehicle: CFA-injected (ipsilateral) paw, WT mice
# physchem = conditions: pH 7.4
# [8] = test system: autaptic hippocampal neurons; test: Electrophysiology in autaptic hippocampal neurons; conditions: after 9j treatment
# [9] = test system: ocular hypertensive NEE mice; test: Intraocular pressure in ocular hypertensive NEE mice; conditions: topical 0.2% 9j alone
# C57BL/6 mice [10] = conditions: orthosteric agonist at 10 mg/kg; cited from earlier work
# C57BL/6 mice [11] = conditions: orthosteric agonist at 10 mg/kg; cited from earlier work; remark: listed apart in the source
# [12] = test system: normotensive C57Bl/6J mice; conditions: cited from earlier work
# Sequence of GFP-rCB1R (P20272 whole entry): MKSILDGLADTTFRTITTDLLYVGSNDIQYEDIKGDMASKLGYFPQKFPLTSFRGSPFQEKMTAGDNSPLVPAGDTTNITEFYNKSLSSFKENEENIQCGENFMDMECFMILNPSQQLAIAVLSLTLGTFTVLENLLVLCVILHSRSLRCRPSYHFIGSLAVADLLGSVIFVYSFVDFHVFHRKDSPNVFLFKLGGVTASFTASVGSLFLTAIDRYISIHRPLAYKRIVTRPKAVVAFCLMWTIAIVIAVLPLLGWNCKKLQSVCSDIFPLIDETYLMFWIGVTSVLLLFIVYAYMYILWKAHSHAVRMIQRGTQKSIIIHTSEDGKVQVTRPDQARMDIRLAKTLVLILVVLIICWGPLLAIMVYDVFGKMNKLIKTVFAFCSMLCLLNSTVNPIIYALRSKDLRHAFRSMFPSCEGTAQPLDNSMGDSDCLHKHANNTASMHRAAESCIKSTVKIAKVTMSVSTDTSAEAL
smiles,measurement,setting,value
"CCCCCCC(C)(C)c1ccc([C@@H]2C[C@H](O)CC[C@H]2CCCO)c(O)c1 [CP55,940, reference compound]","CP55,940 EMax, Vehicle (0)","GFP-rCB1R; CP55,940 without GAT compound, upper plateau",100 ± 6.4 % Forskolin
same,"Standard agonist EMax, PathHunter βarrestin2",hCB1R [1]; standard agonist alone,8.0 ± 1.3 fold over baseline
same,"Standard agonist EMax, HitHunter cAMP",hCB1R [2]; standard agonist alone,1.5 ± 0.07 fold over baseline
"O=[N+]([O-])CC(c1ccccc1)c1c(-c2ccccc2)[nH]c2ccccc12 (centres unmarked) [Compound 6d, 3-(2-Nitro-1-phenylethyl)-2-phenyl-1H-indole]",Emax,"hCB1R [2]; read-out: cAMP EMax, PAM activity, CP55,940 at EC20 + analog, 30 min, mean ± SEM",110 ± 6.8%
same,anti-allodynic efficacy at 1.5 h,[3],present
same,anti-allodynic efficacy at […] post injection,[3],absent
same,time of maximal anti-allodynic efficacy post-injection,[3],30 min
"O=[N+]([O-])CC(c1ccccc1F)c1c(-c2cccc(F)c2)[nH]c2cc(F)ccc12 (centres unmarked) [Compound 6r, 6-Fluoro-2-(3-fluorophenyl)-3-(1-(2-fluorophenyl)-2-nitroethyl)-1H-indole]",catalepsy,C57BL/6 mice [4],did not produce catalepsy
same,ΔEC50,GFP-rCB1R,-12 ± 5.7 nM
same,ΔEMax,GFP-rCB1R,68 ± 4.3 % Forskolin
same,anti-nociceptive effect in the tail flick assay,C57BL/6 mice [5],dose-dependent anti-nociceptive effect
same,hypothermia,C57BL/6 mice [6],did not produce catalepsy or hypothermia
same,"concentrations promoting CP55,940-dependent βarrestin2 recruitment",hCB1R [1],≥ 190 nM
same,PAM bias between cAMP inhibition and βarrestin2 recruitment (ΔΔLogR),hCB1R [2],display bias toward cAMP inhibition
same,agonist bias between cAMP inhibition and βarrestin2 recruitment (ΔΔLogR),hCB1R [2],agonist bias toward cAMP inhibition
same,mechanical paw withdrawal threshold at 30 min post-injection,[7]; 30 mg/kg i.p.,increased mechanical paw withdrawal threshold
same,duration of efficacy post injection,[7]; 30 mg/kg i.p.,at least 2.5 h
same,suppression of CFA-induced mechanical allodynia in CB1KO mice,[7]; 30 mg/kg i.p.,Neither
same,anti-allodynic efficacy at 4 h post injection,[7]; 30 mg/kg i.p.,no longer present
same,paw withdrawal thresholds in the contralateral paw,[7],without altering paw withdrawal thresholds in the contralateral paw
same,dose that maximally suppressed CFA-induced inflammatory pain,[7]; i.p.,30 mg/kg
same,doses that elevated mechanical paw withdrawal thresholds relative to vehicle,[7]; i.p.,3 to 30 mg/kg
"O=[N+]([O-])CC(c1ccccc1F)c1c(-c2cccc(F)c2)[nH]c2c(F)cccc12 (centres unmarked) [Compound 6s, 7-Fluoro-2-(3-fluorophenyl)-3-(1-(2-fluorophenyl)-2-nitroethyl)-1H-indole]",catalepsy,C57BL/6 mice [4],did not produce catalepsy
same,ΔEC50,GFP-rCB1R,-12 ± 8.0 nM
same,ΔEMax,GFP-rCB1R,67 ± 15 % Forskolin
same,anti-nociceptive effect in the tail flick assay,C57BL/6 mice [5],dose-dependent anti-nociceptive effect
same,hypothermia,C57BL/6 mice [6],did not produce catalepsy or hypothermia
same,"concentrations promoting CP55,940-dependent βarrestin2 recruitment",hCB1R [1],≥ 3500 nM
same,PAM bias between cAMP inhibition and βarrestin2 recruitment (ΔΔLogR),hCB1R [2],display bias toward cAMP inhibition
same,agonist bias between cAMP inhibition and βarrestin2 recruitment (ΔΔLogR),hCB1R [2],agonist bias toward cAMP inhibition
same,antinociceptive efficacy compared with 6r at […] post injection,[7]; 30 mg/kg i.p.,greater antinociceptive efficacy than 6r
same,mechanical paw withdrawal threshold at 30 min post-injection,[7]; 30 mg/kg i.p.,increased mechanical paw withdrawal threshold
same,duration of efficacy post injection,[7]; 30 mg/kg i.p.,at least 2.5 h
same,suppression of CFA-induced mechanical allodynia in CB1KO mice,[7]; 30 mg/kg i.p.,Neither
same,anti-allodynic efficacy at 4 h post injection,[7]; 30 mg/kg i.p.,no longer present
same,paw withdrawal thresholds in the contralateral paw,[7],without altering paw withdrawal thresholds in the contralateral paw
same,doses that elevated mechanical paw withdrawal thresholds relative to vehicle,[7]; i.p.,3 to 30 mg/kg
"O=[N+]([O-])CC(c1ccccn1)c1c(-c2ccccc2)[nH]c2ccccc12 (centres unmarked) [Compound 9a, 3-(2-Nitro-1-(pyridin-2-yl)ethyl)-2-phenyl-1H-indole]",solubility thermodynamic at 24 h,physchem,1 µg/mL
"O=[N+]([O-])CC(c1cccnc1)c1c(-c2ccccc2)[nH]c2ccccc12 (centres unmarked) [Compound 9b, 3-(2-Nitro-1-(pyridin-3-yl)ethyl)-2-phenyl-1H-indole]",solubility thermodynamic,physchem,0.4 µg/mL
"O=[N+]([O-])CC(c1ccncc1)c1c(-c2ccccc2)[nH]c2ccccc12 (centres unmarked) [Compound 9c, 3-(2-Nitro-1-(pyridin-4-yl)ethyl)-2-phenyl-1H-indole]",solubility thermodynamic,physchem,12.6 µg/mL
"O=[N+]([O-])CC(c1ccccc1)c1c(-c2cccnc2)[nH]c2ccccc12 (centres unmarked) [Compound 9d, 3-(2-Nitro-1-phenylethyl)-2-(pyridin-3-yl)-1H-indole]",solubility thermodynamic,physchem,1.7 µg/mL
"O=[N+]([O-])CC(c1ccccc1)c1c(-c2ccncc2)[nH]c2ccccc12 (centres unmarked) [Compound 9e, 3-(2-Nitro-1-phenylethyl)-2-(pyridin-4-yl)-1H-indole]",solubility thermodynamic,physchem,0.7 µg/mL
"O=[N+]([O-])CC(c1ccccc1)c1c(-c2ccccc2)[nH]c2cccnc12 (centres unmarked) [Compound 9f, 3-(2-Nitro-1-phenylethyl)-2-phenyl-1H-pyrrolo[3,2-b]pyridine]",solubility thermodynamic,physchem,3.8 µg/mL
"O=[N+]([O-])CC(c1ccccc1)c1c(-c2ccccc2)[nH]c2ccncc12 (centres unmarked) [Compound 9g, 3-(2-Nitro-1-phenylethyl)-2-phenyl-1H-pyrrolo[3,2-c]pyridine]",solubility thermodynamic,physchem,8.1 µg/mL
"O=[N+]([O-])CC(c1ccccc1)c1c(-c2ccccc2)[nH]c2cnccc12 (centres unmarked) [Compound 9h, 3-(2-Nitro-1-phenylethyl)-2-phenyl-1H-pyrrolo[2,3-c]pyridine]",solubility thermodynamic,physchem,2.3 µg/mL
"O=[N+]([O-])CC(c1ccccc1)c1c(-c2ccccc2)[nH]c2ncccc12 (centres unmarked) [Compound 9i, 3-(2-Nitro-1-phenylethyl)-2-phenyl-1H-pyrrolo[2,3-b]pyridine]",solubility thermodynamic,physchem,54.6 µg/mL
"O=[N+]([O-])CC(c1ncccc1F)c1c(-c2ccccc2)[nH]c2ccccc12 (centres unmarked) [Compound 9j, 3-(1-(3-Fluoropyridin-2-yl)-2-nitroethyl)-2-phenyl-1H-indole]",catalepsy,C57BL/6 mice [4],did not produce catalepsy
same,DSE response,[8],DSE was enhanced
same,"change in IOP from baseline, 1 hour",[9]; 1 h,−2.5 ± 1 mmHg
same,"change in IOP from baseline, 6 hours",[9]; 6 h,−3.6 ± 1 mmHg
same,IOP decrease at 12 hours,[9]; 12 h,no longer present
same,hypothermia,C57BL/6 mice [6],did not produce catalepsy or hypothermia
"CCCCCc1cc(O)c2c(c1)OC(C)(C)[C@@H]1CCC(C)=C[C@@H]21 [THC, Δ[9]-tetrahydrocannabinol]",catalepsy,C57BL/6 mice [10],significant catalepsy
same,hypothermic effects,C57BL/6 mice [11],hypothermic effects
Cc1c(C(=O)c2cccc3ccccc23)c2cccc3c2n1[C@H](CN1CCOCC1)CO3 [WIN],effect on IOP,[12]; topical 1% WIN,decreases IOP
same,effect on IOP,[12]; topical WIN […] (subthreshold),does not affect IOP
